Assay results: ChEMBL document CHEMBL6109148, “Development of Squaramides as Allosteric Modulators of the CB1 Receptor: Synthesis, Computational Studies, Biological Characterization, and Effects against Cocaine-Induced Behavioral Sensitization and Reinstatement in Rats” (J Med Chem, 2025); call rule not given here

Key:
[1] = molecular target: Cannabinoid receptor 2 (Homo sapiens) (UniProt P34972); assay: Antagonist activity at human CB2 receptor stably expressed in CHO-RD-HGA16 cells assessed as inhibition of CP55940-induced intracellular calcium mobilization at 10 uM by FLIPR assay relative to CP55940; assay type: functional, cell-based; set-up: scale not given: the % may be the effect or the level left
Cannabinoid receptor 1 [2] = molecular target: T1, Cannabinoid receptor 1 (Homo sapiens, UniProt P21554); assay: Negative allosteric modulation of human CB1 receptor stably expressed in CHO-RD-HGA16 cells assessed as inhibition of CP55940-induced intracellular calcium mobilization incubated for 15 mins by FLIPR assay; assay type: functional, cell-based
Cannabinoid receptor 1 [3] = molecular target: T1, Cannabinoid receptor 1; assay: Agonist activity at human CB1 receptor stably expressed in CHO-RD-HGA16 cells assessed as increase in intracellular calcium mobilization at 10 uM by FLIPR assay relative to CP55940; assay type: functional, cell-based
Cannabinoid receptor 1 [4] = molecular target: Cannabinoid receptor 1 (Mus musculus, UniProt P47746); assay: Negative allosteric modulation of CD-1 mouse CB1 receptor extracted from cerebellum membrane in presence of [35S]GTP-gammaS; assay type: cell membranes
Cannabinoid receptor 1 [5] = molecular target: T1, Cannabinoid receptor 1; assay: Negative allosteric modulation of human CB1 extracted from HEK293 cell membrane assessed as increase in forskolin-induced cAMP production preincubated for 15 mins followed by forskolin/CP55940 addition by BRET CAMYEL cAMP assay
Cannabinoid receptor 1 [6] = molecular target: T1, Cannabinoid receptor 1; assay: Negative allosteric modulation of human CB1 extracted from HEK293 cell membrane assessed as specific binding of [3H]CP55940 incubated for 90 mins; assay type: cell membranes
[7] = Stability in human liver microsomes assessed as half life at 1 uM preincubated for 10 mis followed by NADPH addition measured for 15 to 60 mins by LC-MS/MS analysis; assay type: ADME, Microsome; details: time 25-70 min
[8] = Stability in human liver microsomes assessed as clearance at 1 uM preincubated for 10 mis followed by NADPH addition measured for 15 to 60 mins by LC-MS/MS analysis; assay type: ADME, Microsome; details: time 25-70 min
[9] = Stability in human hepatocytes assessed as half life at 1 uM measured up to 120 mins by LC/MS/MS analysis; assay type: ADME, cell-based, Hepatocyte; details: 2 h
[10] = Stability in human hepatocytes assessed as clearance at 1 uM measured up to 120 mins by LC/MS/MS analysis; assay type: ADME, cell-based, Hepatocyte; details: 2 h
[11] = Kinetic solubility of compound in PBS incubated for 2 hrs by LC-MS/MS analysis; assay type: physicochemical; details: read-out: Kinetic_solubility
[12] = Apparent permeability across apical to basal side in MDCK-MDR1 cells at 10 uM measured for 30 to 90 mins by LC-MS/MS analysis; assay type: ADME, cell-based, Canis lupus familiaris; details: dog, mdck-mdr1, 10 µM, time 30-90 min
[13] = Apparent permeability across basal to apical side in MDCK-MDR1 cells at 10 uM measured for 30 to 90 mins by LC-MS/MS analysis; assay type: ADME, cell-based, Canis lupus familiaris; details: dog, mdck-mdr1, 10 µM, time 30-90 min
[14] = Protein binding in rat plasma at 1 uM incubated for 6 hrs by LC-MS/MS analysis; assay type: ADME, cell-free
[15] = Protein binding in rat brain at 1 uM incubated for 6 hrs by LC-MS/MS analysis; assay type: ADME, tissue-based
[16] = Protein binding in human plasma at 1 uM incubated for 6 hrs by LC-MS/MS analysis; assay type: ADME, cell-free
[17] = Drug concentration in plasma of Sprague-Dawley rat at 1 mg/kg, iv measured after 5 mins by LC-MS/MS analysis; assay type: ADME, organism-based
[18] = Drug excretion in Sprague-Dawley rat at 1 mg/kg, iv measured after 4 hrs by LC-MS/MS analysis; assay type: ADME, organism-based; details: in vivo
[19] = Half life in Sprague-Dawley rat at 1 mg/kg, iv measured for 0.08 to 8 hrs by LC-MS/MS analysis; assay type: ADME, organism-based; details: in vivo, time 0.08-8 hrs
[20] = Drug concentration in plasma of Sprague-Dawley rat at 5.6 mg/kg, ip measured after 0.25 hrs by LC-MS/MS analysis; assay type: ADME, organism-based
[21] = Drug concentration in plasma of Sprague-Dawley rat at 5.6 mg/kg, ip measured after 0.5 hrs by LC-MS/MS analysis; assay type: ADME, organism-based
[22] = Drug concentration in plasma of Sprague-Dawley rat at 5.6 mg/kg, ip measured after 1 hr by LC-MS/MS analysis; assay type: ADME, organism-based
[23] = Drug concentration in plasma of Sprague-Dawley rat at 5.6 mg/kg, ip measured after 8 hrs by LC-MS/MS analysis; assay type: ADME, organism-based
[24] = Drug concentration in brain of Sprague-Dawley rat at 5.6 mg/kg, ip measured after 0.25 hrs by LC-MS/MS analysis; assay type: ADME, organism-based; details: read-out: Ct
[25] = Drug concentration in brain of Sprague-Dawley rat at 5.6 mg/kg, ip measured after 0.5 hrs by LC-MS/MS analysis; assay type: ADME, organism-based; details: read-out: Ct
[26] = Drug concentration in brain of Sprague-Dawley rat at 5.6 mg/kg, ip measured after 1 hr by LC-MS/MS analysis; assay type: ADME, organism-based; details: read-out: Ct
[27] = Drug concentration in brain of Sprague-Dawley rat at 5.6 mg/kg, ip measured after 8 hrs by LC-MS/MS analysis; assay type: ADME, organism-based; details: read-out: Ct
Cannabinoid receptor 1 [28] = molecular target: T1, Cannabinoid receptor 1; assay: Negative allosteric modulation of human CB1 receptor extracted from HEK293 cell membrane in presence of [35S]GTP-gammaS; assay type: cell membranes

Chain of Cannabinoid receptor 2 (Homo sapiens) (P34972 whole entry): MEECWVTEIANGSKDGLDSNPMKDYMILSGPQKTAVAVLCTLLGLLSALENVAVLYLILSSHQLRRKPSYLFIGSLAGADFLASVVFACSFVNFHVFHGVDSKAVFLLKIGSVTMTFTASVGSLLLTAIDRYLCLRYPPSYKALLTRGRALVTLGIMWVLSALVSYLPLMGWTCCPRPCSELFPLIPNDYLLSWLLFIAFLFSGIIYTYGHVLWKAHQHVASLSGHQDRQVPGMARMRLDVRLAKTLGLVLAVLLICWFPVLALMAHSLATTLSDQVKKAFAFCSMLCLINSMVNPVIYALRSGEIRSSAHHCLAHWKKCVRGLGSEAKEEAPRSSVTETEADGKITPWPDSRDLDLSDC
Chain of Cannabinoid receptor 1 (Mus musculus, UniProt P47746) (P47746 whole entry): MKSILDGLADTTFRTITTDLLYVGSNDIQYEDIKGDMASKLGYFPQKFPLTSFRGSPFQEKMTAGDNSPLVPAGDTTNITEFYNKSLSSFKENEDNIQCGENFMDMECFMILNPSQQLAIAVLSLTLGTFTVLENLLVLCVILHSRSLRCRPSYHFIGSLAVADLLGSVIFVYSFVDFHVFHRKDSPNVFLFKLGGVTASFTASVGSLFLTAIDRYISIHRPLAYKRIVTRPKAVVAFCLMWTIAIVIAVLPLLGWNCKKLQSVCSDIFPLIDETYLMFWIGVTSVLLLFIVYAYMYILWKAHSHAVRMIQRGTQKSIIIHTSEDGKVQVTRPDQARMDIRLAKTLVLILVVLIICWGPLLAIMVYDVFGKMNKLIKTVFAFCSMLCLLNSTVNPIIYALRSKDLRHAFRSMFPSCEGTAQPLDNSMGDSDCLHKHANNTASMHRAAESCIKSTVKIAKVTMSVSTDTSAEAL
T1 sequence (P21554 whole entry): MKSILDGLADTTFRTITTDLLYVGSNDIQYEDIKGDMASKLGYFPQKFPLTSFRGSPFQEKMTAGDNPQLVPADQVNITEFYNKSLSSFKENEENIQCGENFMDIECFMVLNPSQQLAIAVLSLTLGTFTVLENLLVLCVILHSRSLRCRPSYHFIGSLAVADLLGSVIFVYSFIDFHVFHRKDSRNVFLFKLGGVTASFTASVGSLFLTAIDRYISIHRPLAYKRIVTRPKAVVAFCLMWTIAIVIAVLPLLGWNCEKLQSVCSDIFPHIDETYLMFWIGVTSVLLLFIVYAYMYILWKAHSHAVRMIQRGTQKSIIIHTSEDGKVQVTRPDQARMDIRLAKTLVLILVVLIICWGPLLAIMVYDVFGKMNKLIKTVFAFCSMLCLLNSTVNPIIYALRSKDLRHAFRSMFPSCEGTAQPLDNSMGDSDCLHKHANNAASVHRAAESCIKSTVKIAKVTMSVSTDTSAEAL

O=c1c(NCCc2ccc(Cl)cc2Cl)c(Nc2ccc(Cl)cc2)c1=O
Activity [1]: < 50%

O=c1c(NCCc2cccc(C(F)(F)F)c2)c(Nc2ccc(Cl)cc2)c1=O
IC50 (Cannabinoid receptor 1 [2]): 339 nM | Activity (Cannabinoid receptor 1 [3]): < 30% | Activity [1]: < 50%

Cc1ccc(CCNc2c(Nc3ccc(Cl)cc3)c(=O)c2=O)cc1
IC50 (Cannabinoid receptor 1 [2]): 158 nM | Activity (Cannabinoid receptor 1 [3]): < 30% | Activity [1]: < 50% | IC50 (Cannabinoid receptor 1 [4]): 646 nM

O=c1c(NCCc2ccc(C(F)(F)F)cc2)c(Nc2ccc(Cl)cc2)c1=O
Activity (Cannabinoid receptor 1 [3]): < 30% | Activity [1]: < 50%

COc1cccc(CCNc2c(Nc3ccc(Cl)cc3)c(=O)c2=O)c1
Activity (Cannabinoid receptor 1 [3]): < 30% | Activity [1]: < 50%

CC(=O)c1ccc(CCNc2c(Nc3ccc(Cl)cc3)c(=O)c2=O)cc1
IC50 (Cannabinoid receptor 1 [2]): > 10000 nM | Activity (Cannabinoid receptor 1 [3]): < 30% | Activity [1]: < 50%

O=c1c(NCCc2ccc(Cl)cc2)c(Nc2ccc(Cl)cc2)c1=O
Activity (Cannabinoid receptor 1 [3]): < 30% | Activity [1]: < 50%

O=c1c(Nc2ccc(Cl)cc2)c(N2CCN(c3ccc(Cl)cc3)CC2)c1=O
IC50 (Cannabinoid receptor 1 [2]): > 10000 nM | Activity (Cannabinoid receptor 1 [3]): < 30% | Activity [1]: < 50%

O=c1c(NCCc2cccc(Cl)c2)c(Nc2ccc(Cl)cc2)c1=O
IC50 (Cannabinoid receptor 1 [4]): 214 nM | IC50 (Cannabinoid receptor 1 [5]): 148 nM | EC50 (Cannabinoid receptor 1 [6]): 692 nM | t1/2 [7]: 15.8 min | CLH [8]: 87.8 µL/min/mg | t1/2 [9]: 88.3 min | CLH [10]: 39.9 µL/min/mg | solubility kinetic at 2 h [11]: < 1 µg/mL | Papp [12]: 3.1 10^-6 cm/s | Papp [13]: 6.4 10^-6 cm/s | PPB [14]: > 99% | PB [15]: > 99% | PPB [16]: > 99% | concentration at 5 min [17]: 1240 ng/mL | Drug excretion [18]: Active | t1/2 [19]: 30.6 min | concentration at 0.25 h [20]: 8.7 ng/mL | concentration at 0.5 h [21]: 11.7 ng/mL | concentration at 1 h [22]: 12.1 ng/mL | concentration at 8 h [23]: 4.6 ng/mL | concentration at 0.25 h [24]: 173 ng/mL | concentration at 0.5 h [25]: 59.5 ng/mL | concentration at 1 h [26]: 93.8 ng/mL | concentration at 8 h [27]: 54.8 ng/mL

O=c1c(NCCCc2ccccc2)c(Nc2ccc(Cl)cc2)c1=O
IC50 (Cannabinoid receptor 1 [2]): 871 nM | Activity (Cannabinoid receptor 1 [3]): < 30% | Activity [1]: < 50%

O=c1c(NCCc2ccc(Br)cc2)c(Nc2ccc(Cl)cc2)c1=O
IC50 (Cannabinoid receptor 1 [2]): > 10000 nM | Activity (Cannabinoid receptor 1 [3]): < 30% | Activity [1]: < 50%

O=c1c(NCCc2ccccc2C(F)(F)F)c(Nc2ccc(Cl)cc2)c1=O
Activity (Cannabinoid receptor 1 [3]): < 30% | Activity [1]: < 50%

O=c1c(NCCc2ccccc2F)c(Nc2ccc(Cl)cc2)c1=O
IC50 (Cannabinoid receptor 1 [2]): 269 nM | Activity (Cannabinoid receptor 1 [3]): < 30% | Activity [1]: < 50% | IC50 (Cannabinoid receptor 1 [28]): 6610 nM | IC50 (Cannabinoid receptor 1 [4]): 5620 nM

O=c1c(NCCc2cccc(F)c2)c(Nc2ccc(Cl)cc2)c1=O
IC50 (Cannabinoid receptor 1 [2]): 282 nM | Activity (Cannabinoid receptor 1 [3]): < 30% | Activity [1]: < 50%

O=c1c(NCCc2ccccc2)c(Nc2ccc(Cl)cc2)c1=O
IC50 (Cannabinoid receptor 1 [2]): 204 nM | Activity (Cannabinoid receptor 1 [3]): < 30% | Activity [1]: < 50%

O=c1c(NCCc2ccc(N3CCC3)cc2)c(Nc2ccc(Cl)cc2)c1=O
Activity (Cannabinoid receptor 1 [3]): < 30% | Activity [1]: < 50%

O=c1c(NCCc2cccc(O)c2)c(Nc2ccc(Cl)cc2)c1=O
IC50 (Cannabinoid receptor 1 [2]): > 10000 nM | Activity (Cannabinoid receptor 1 [3]): < 30% | Activity [1]: < 50%

CN(C)c1ccc(CCNc2c(Nc3ccc(Cl)cc3)c(=O)c2=O)cc1
IC50 (Cannabinoid receptor 1 [2]): 501 nM | Activity (Cannabinoid receptor 1 [3]): < 30% | Activity [1]: < 50% | IC50 (Cannabinoid receptor 1 [4]): 617 nM

O=C(Nc1ccc(Cl)cc1)Nc1cccc(-c2cccc(N3CCCC3)n2)c1
Activity [1]: < 50%

O=c1c(NCCc2ccc(Cl)c(Cl)c2)c(Nc2ccc(Cl)cc2)c1=O
Activity (Cannabinoid receptor 1 [3]): < 30% | Activity [1]: < 50%

COc1ccccc1CCNc1c(Nc2ccc(Cl)cc2)c(=O)c1=O
Activity (Cannabinoid receptor 1 [3]): < 30% | Activity [1]: < 50%

O=c1c(NCCN2CCCCC2)c(Nc2ccc(Cl)cc2)c1=O
Activity (Cannabinoid receptor 1 [3]): < 30% | Activity [1]: < 50%

O=c1c(NCCc2ccc(F)cc2)c(Nc2ccc(Cl)cc2)c1=O
Activity (Cannabinoid receptor 1 [3]): < 30% | Activity [1]: < 50%

COc1ccc(CCNc2c(Nc3ccc(Cl)cc3)c(=O)c2=O)cc1
IC50 (Cannabinoid receptor 1 [2]): 525 nM | Activity (Cannabinoid receptor 1 [3]): < 30% | Activity [1]: < 50%

O=c1c(NCCc2ccccn2)c(Nc2ccc(Cl)cc2)c1=O
Activity (Cannabinoid receptor 1 [3]): < 30% | Activity [1]: < 50%

Cc1cccc(CCNc2c(Nc3ccc(Cl)cc3)c(=O)c2=O)c1
IC50 (Cannabinoid receptor 1 [2]): 195 nM | Activity (Cannabinoid receptor 1 [3]): < 30% | Activity [1]: < 50% | IC50 (Cannabinoid receptor 1 [4]): 912 nM

O=c1c(NCCc2ccc(F)cc2F)c(Nc2ccc(Cl)cc2)c1=O
IC50 (Cannabinoid receptor 1 [2]): 912 nM | Activity (Cannabinoid receptor 1 [3]): < 30% | Activity [1]: < 50%

O=c1c(NCc2ccccc2)c(Nc2ccc(Cl)cc2)c1=O
IC50 (Cannabinoid receptor 1 [2]): > 10000 nM | Activity (Cannabinoid receptor 1 [3]): < 30% | Activity [1]: < 50%

O=c1c(NCCc2ccc(N3CCCC3)cc2)c(Nc2ccc(Cl)cc2)c1=O
Activity (Cannabinoid receptor 1 [3]): < 30% | Activity [1]: < 50%

O=c1c(NCCc2ccncc2)c(Nc2ccc(Cl)cc2)c1=O
Activity (Cannabinoid receptor 1 [3]): < 30% | Activity [1]: < 50%

CN(C)c1cccc(CCNc2c(Nc3ccc(Cl)cc3)c(=O)c2=O)c1
Activity (Cannabinoid receptor 1 [3]): < 30% | Activity [1]: < 50%

CCN(CC)c1ccc(CCNc2c(Nc3ccc(Cl)cc3)c(=O)c2=O)cc1
IC50 (Cannabinoid receptor 1 [2]): > 10000 nM | Activity (Cannabinoid receptor 1 [3]): < 30% | Activity [1]: < 50%

O=c1c(NCCc2ccccc2Cl)c(Nc2ccc(Cl)cc2)c1=O
IC50 (Cannabinoid receptor 1 [2]): 832 nM | Activity (Cannabinoid receptor 1 [3]): < 30% | Activity [1]: < 50%

O=c1c(NCCc2ccc(N3CCCCC3)cc2)c(Nc2ccc(Cl)cc2)c1=O
Activity (Cannabinoid receptor 1 [3]): < 30% | Activity [1]: < 50%

Cc1ccc(CCNc2c(Nc3ccc(Cl)cc3)c(=O)c2=O)cc1C
IC50 (Cannabinoid receptor 1 [2]): 427 nM | Activity (Cannabinoid receptor 1 [3]): < 30% | Activity [1]: < 50%

O=c1c(NCCc2cccs2)c(Nc2ccc(Cl)cc2)c1=O
IC50 (Cannabinoid receptor 1 [2]): 692 nM | Activity (Cannabinoid receptor 1 [3]): < 30% | Activity [1]: < 50%

Cc1ccccc1CCNc1c(Nc2ccc(Cl)cc2)c(=O)c1=O
IC50 (Cannabinoid receptor 1 [2]): 1260 nM | Activity (Cannabinoid receptor 1 [3]): < 30% | Activity [1]: < 50%
